# Assay results published in patent publication US20070049593A1 (priority 2004, published 2007).
# Structures can show the parent of a compound that is named as a salt.
# Target: T1, HCV polymerase (Hepatitis C virus genotype 1b, UniProt P26663)
# T1 construct: a region encoding NS5B (J Virol 1991 March, 65(3), 1105-13, 544 amino acids after deletion of 47 amino acids on the C-terminal); 6xHis (C); made in house; host or cells: Escherichia coli
# Experiment: biochemical
# Design: species or system HCV BK strain
# Summary of the method: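 His-tagged NS5B (BK strain, 47-aa C-terminal deletion, E. coli-expressed) at 0.5 μg/ml copied 5 μg/ml run-off RNA bearing the HCV 3′ UTR with 2 μM UTP plus [3H]UTP, 50 μM ATP/GTP, in pH 7.5 Tris with 5 mM MgCl2, 25 °C, 90 min. TCA-precipitated RNA was counted and IC50 calculated.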
# T1 sequence (P26663 2420-2963): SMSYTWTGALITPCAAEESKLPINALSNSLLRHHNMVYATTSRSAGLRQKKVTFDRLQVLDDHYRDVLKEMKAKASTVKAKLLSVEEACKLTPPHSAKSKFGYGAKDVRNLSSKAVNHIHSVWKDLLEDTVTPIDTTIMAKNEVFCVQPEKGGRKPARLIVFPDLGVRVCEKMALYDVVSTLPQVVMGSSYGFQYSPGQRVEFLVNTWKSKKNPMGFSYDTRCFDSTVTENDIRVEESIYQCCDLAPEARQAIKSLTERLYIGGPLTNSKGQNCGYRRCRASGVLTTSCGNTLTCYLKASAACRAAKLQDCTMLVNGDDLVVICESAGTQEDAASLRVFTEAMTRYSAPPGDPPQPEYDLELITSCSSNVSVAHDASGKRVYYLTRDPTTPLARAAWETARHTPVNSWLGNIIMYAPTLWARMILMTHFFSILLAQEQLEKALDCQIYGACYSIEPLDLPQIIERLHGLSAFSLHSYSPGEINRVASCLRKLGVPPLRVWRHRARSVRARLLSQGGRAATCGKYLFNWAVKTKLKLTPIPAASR
row,SMILES,IC50
1,"COc1ccc2c(c1)OCCn1c-2c(C2CCCCC2)c2ccc(C(=O)N[C@@H](Cc3ccc(O)c(Cl)c3)C(=O)O)cc21 [Example 2-365, (S)-3-(3-chloro-4-hydroxyphenyl)-2-[(12-cyclohexyl-3-methoxy-6,7-dihydro-5-oxa-7a-azadibenzo[a,e]azulene-9-carbonyl)amino]propionic acid]",< 100 nM
2,"O=C(O)c1ccc2c(C3CCCCC3)c3n(c2c1)CCN(CCN1CCCC(O)C1)c1ccccc1-3 (stereo not drawn) [Example 1-113, 13-cyclohexyl-5-[2-(3-hydroxypiperidin-1-yl)ethyl]-6,7-dihydro-5H-benzo[5,6][1,4]diazepino[7,1-a]indole-10-carboxylic acid dihydrochloride]",< 100 nM
3,"COc1ccc2c(c1)OCCn1c-2c(C2CCCCC2)c2ccc(C(=O)N[C@@H](CCc3ccc(O)cc3)C(=O)O)cc21 [Example 2-376, (S)-2-[(12-cyclohexyl-3-methoxy-6,7-dihydro-5-oxa-7a-azadibenzo[a,e]azulene-9-carbonyl)amino]-4-(4-hydroxyphenyl)butyric acid]",< 100 nM
4,"CC1CCCN1CCCN1CCn2c(c(C3CCCCC3)c3ccc(C(=O)O)cc32)-c2ccc(Cl)cc21 (stereo not drawn) [Example 1-368, 3-chloro-13-cyclohexyl-5-[3-(2-methylpyrrolidin-1-yl)propyl]-6,7-dihydro-5H-benzo[5,6][1,4]diazepino[7,1-a]indole-10-carboxylic acid]",< 100 nM
5,"COc1ccc2c(c1)OCCn1c-2c(C2CCCCC2)c2ccc(C(=O)N[C@@H](Cc3ccc(OC(C)=O)cc3)C3=NC(C)(C)C(=O)O3)cc21 [Example 2-431, 4-[(S)-2-[(12-cyclohexyl-3-methoxy-6,7-dihydro-5-oxa-7a-azadibenzo[a,e]azulene-9-carbonyl)amino]-2-(4,4-dimethyl-5-oxo-4,5-dihydrooxazol-2-yl)ethyl]phenyl acetate]",< 100 nM
6,"CC(C)(CNCC(=O)O)NC(=O)c1ccc2c(C3CCCCC3)c3n(c2c1)CCOc1ccccc1-3 [Example 2-187, (2-[(12-cyclohexyl-6,7-dihydro-5-oxa-7a-azadibenzo[a,e]azulene-9-carbonyl)amino]-2-methylpropylamino)acetic acid]",100 to 1000 nM
7,"COc1ccc2c(c1)OCCn1c-2c(C2CCCCC2)c2ccc(C(=O)N[C@@H](Cc3c[nH]c4ccc(OCCO)cc34)c3csc(C)n3)cc21 [Example 2-421, N—[(S)-2-[5-(2-hydroxyethoxy)-1H-indol-3-yl]-1-(2-methylthiazol-4-yl)ethyl]-12-cyclohexyl-3-methoxy-6,7-dihydro-5-oxa-7a-azadibenzo[a,e]azulene-9-carboxamide]",< 100 nM
8,"CC(C)(COc1ccc(C(=O)O)cc1)NC(=O)c1ccc2c(C3CCCCC3)c3n(c2c1)CCOc1ccccc1-3 [Example 2-156, 4-{2-[(12-cyclohexyl-6,7-dihydro-5-oxa-7a-azadibenzo[a,e]azulene-9-carbonyl)amino]-2-methylpropoxy}benzoic acid]",< 100 nM
9,"Cc1ccc2c(c1)OCCn1c-2c(C2CCCCC2)c2ccc(C(=O)O)cc21 [Example 2-479, 12-cyclohexyl-3-methyl-6,7-dihydro-5-oxa-7a-azadibenzo[a,e]azulene-9-carboxylic acid]",< 100 nM
10,"COC(=O)Nc1ccc(C[C@H](NC(=O)c2ccc3c(C4CCCCC4)c4n(c3c2)CCOc2cc(OC)ccc2-4)C(=O)O)cc1 [Example 2-364, (S)-2-[(12-cyclohexyl-3-methoxy-6,7-dihydro-5-oxa-7a-azadibenzo[a,e]azulene-9-carbonyl)amino]-3-(4-methoxycarbonylaminophenyl)propionic acid]",< 100 nM
11,"Cc1ccc2c(c1)N(CCN1CCCC(CO)C1)CCn1c-2c(C2CCCCC2)c2ccc(C(=O)O)cc21 (stereo not drawn) [Example 1-435, 13-cyclohexyl-5-[2-(3-hydroxymethylpiperidin-1-yl)ethyl]-3-methyl-6,7-dihydro-5H-benzo[5,6][1,4]diazepino[7,1-a]indole-10-carboxylic acid dihydrochloride]",< 100 nM
12,"O=C(O)c1ccc2c(C3CCCCC3)c3n(c2c1)CCOc1c(-c2ccccc2CCC(=O)N2CCCCC2)cccc1-3 [Example 2-535, 12-cyclohexyl-4-{2-[3-oxo-3-(piperidin-1-yl)propyl]phenyl}-6,7-dihydro-5-oxa-7a-azadibenzo[a,e]azulene-9-carboxylic acid]",< 100 nM
13,"Cc1ccc2c(c1)N(CCC1CCCN(C)C1)CCn1c-2c(C2CCCCC2)c2ccc(C(=O)O)cc21 (stereo not drawn) [Example 1-274, 13-cyclohexyl-3-methyl-5-[2-(1-methylpiperidin-3-yl)ethyl]-6,7-dihydro-5H-benzo[5,6][1,4]diazepino[7,1-a]indole-10-carboxylic acid dihydrochloride]",< 100 nM
14,"CN(c1ccc(N2CCOCC2)c(COc2ccc3c(c2)OCCn2c-3c(C3CCCCC3)c3ccc(C(=O)O)cc32)c1)S(C)(=O)=O [Example 2-19, 12-cyclohexyl-3-[5-(N-methanesulfonyl-N-methylamino)-2-(morpholin-4-yl)benzyloxy]-6,7-dihydro-5-oxa-7a-azadibenzo[a,e]azulene-9-carboxylic acid monohydrochloride]",< 100 nM
15,"Cc1ccc2c(c1)N(CCN1CCCC(OC(C)C)C1)CCn1c-2c(C2CCCCC2)c2ccc(C(=O)O)cc21 (stereo not drawn) [Example 1-394, 13-cyclohexyl-5-[2-(3-isopropoxypiperidin-1-yl)ethyl]-3-methyl-6,7-dihydro-5H-benzo[5,6][1,4]diazepino[7,1-a]indole-10-carboxylic acid monohydrochloride]",< 100 nM
16,"CCN1CCN(C(=O)CN2C(=O)Cn3c(c(C4CCCCC4)c4ccc(C(=O)O)cc43)-c3ccccc32)CC1 [Example 1-204, 13-cyclohexyl-5-[2-(4-ethylpiperazin-1-yl)-2-oxoethyl]-6-oxo-6,7-dihydro-5H-benzo[5,6][1,4]diazepino[7,1-a]indole-10-carboxylic acid monohydrochloride]",< 100 nM
17,"CN1CCC(CCOc2ccc3c(c2)N(C)CCn2c-3c(C3CCCCC3)c3ccc(C(=O)O)cc32)CC1 [Example 1-439, 13-cyclohexyl-5-methyl-3-[2-(1-methylpiperidin-4-yl)ethoxy]-6,7-dihydro-5H-benzo[5,6][1,4]diazepino[7,1-a]indole-10-carboxylic acid dihydrochloride]",< 100 nM
18,"CC(C)(CN1CCN(CCO)CC1)NC(=O)c1ccc2c(C3CCCCC3)c3n(c2c1)CCOc1ccccc1-3 [Example 2-244, N-{2-[4-(2-hydroxyethyl)piperazin-1-yl]-1,1-dimethylethyl}-12-cyclohexyl-6,7-dihydro-5-oxa-7a-azadibenzo[a,e]azulene-9-carboxamide]",100 to 1000 nM
19,"COCC1CCCN(CCN2CCn3c(c(C4CCCCC4)c4ccc(C(=O)O)cc43)-c3ccc(OCC(C)C)cc32)C1 (stereo not drawn) [Example 1-377, 13-cyclohexyl-3-isobutoxy-5-[2-(3-methoxymethylpiperidin-1-yl)ethyl]-6,7-dihydro-5H-benzo[5,6][1,4]diazepino[7,1-a]indole-10-carboxylic acid dihydrochloride]",< 100 nM
20,"COc1cccc2c1OCCn1c-2c(C2CCCCC2)c2ccc(C(=O)NC(C)(C)C(=O)Nc3ccc(C(=O)O)cc3)cc21 [Example 2-306, 4-{2-[(12-cyclohexyl-4-methoxy-6,7-dihydro-5-oxa-7a-azadibenzo[a,e]azulene-9-carbonyl)amino]-2-methylpropionylamino}benzoic acid]",< 100 nM
21,"CC1CCCN1CCN1CCn2c(c(C3CCCCC3)c3ccc(C(=O)O)cc32)-c2ccccc21 (stereo not drawn) [Example 1-208, 13-cyclohexyl-5-[2-(2-methylpyrrolidin-1-yl)ethyl]-6,7-dihydro-5H-benzo[5,6][1,4]diazepino[7,1-a]indole-10-carboxylic acid dihydrochloride]",< 100 nM
22,"CC(C)(C)OC(=O)N1CCN(CCN2CCn3c(c(C4CCCCC4)c4ccc(C(=O)O)cc43)-c3ccccc32)CC1 [Example 1-95, 5-[2-(4-tert-butoxycarbonylpiperazin-1-yl)ethyl]-13-cyclohexyl-6,7-dihydro-5H-benzo[5,6][1,4]diazepino[7,1-a]indole-10-carboxylic acid dihydrochloride]",< 100 nM
23,"COCC(=O)N1CCn2c(c(C3CCCCC3)c3ccc(C(=O)O)cc32)-c2ccc(OC)cc2C1 [Example 11-7, 14-cyclohexyl-3-methoxy-6-(2-methoxyacetyl)-5,6,7,8-tetrahydrobenzo[6,7][1,4]diazocino[8,1-a]indole-11-carboxylic acid]",< 100 nM
24,"CC(C)(NC(=O)c1ccc2c(C3CCCCC3)c3n(c2c1)CCOc1ccccc1-3)c1nc2ccc(C#N)cc2[nH]1 [Example 2-269, N-[1-(6-cyano-1H-benzimidazol-2-yl)-1-methylethyl]-12-cyclohexyl-6,7-dihydro-5-oxa-7a-azadibenzo[a,e]azulene-9-carboxamide]",< 100 nM
25,"COC(=O)C(Cc1ccc(O)c(F)c1)NC(=O)c1ccc2c(C3CCCCC3)c3n(c2c1)CCOc1cc(OC)ccc1-3 (stereo not drawn) [Example 2-315, methyl 2-[(12-cyclohexyl-3-methoxy-6,7-dihydro-5-oxa-7a-azadibenzo[a,e]azulene-9-carbonyl)amino]-3-(3-fluoro-4-hydroxyphenyl)propionate]",< 100 nM
26,"Cc1ccc2c(c1)N(CCCN(C(C)C)C(C)C)CCn1c-2c(C2CCCCC2)c2ccc(C(=O)O)cc21 [Example 1-521, 13-cyclohexyl-5-(3-diisopropylaminopropyl)-3-methyl-6,7-dihydro-5H-benzo[5,6][1,4]diazepino[7,1-a]indole-10-carboxylic acid dihydrochloride]",< 100 nM
27,"O=C(O)c1ccc2c(C3CCCCC3)c3n(c2c1)CCOc1c(OCCC2CCNCC2)cccc1-3 [Example 2-458, 12-cyclohexyl-4-[2-(piperidin-4-yl)ethoxy]-6,7-dihydro-5-oxa-7a-azadibenzo[a,e]azulene-9-carboxylic acid monohydrochloride]",< 100 nM
